{"source": "patent US5849263A", "about": "“Pharmaceutical compositions containing alkylaryl polyether alcohol polymer” (priority 1996, dated 1998)", "origin": "cited, not measured here", "settings": "in vivo", "data": [{"smiles": "CCCCCCCCCCCCCCCC(=O)OCC(COP(=O)([O-])OCC[N+](C)(C)C)OC(=O)CCCCCCCCCCCCCCC", "note": "(stereo not shown) [DPPC, diphalmitoylphosphatidyl choine]", "values": [{"measurement": "undesired features / side effects of formulation", "value": "mucus plugging of the airways and obstruction of ventilator circuits"}]}]}
